# Tests used:
# Conditions in all cases: 72 h
# [1] = system: myeloid leukemia patient primary cells Pat.10; experiment: cell viability (% survival relative to DMSO control); higher = less cytotoxic
# Method in brief: (§1)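 Thawed, Ficoll-purified mononuclear cells from AML or CML patients in RPMI 1640 with 10% FBS were seeded at 10,000 cells/well on 384-well plates pre-printed with 70 compounds at five tenfold concentrations, 1–10,000 nM, in duplicate, for 72 h. Viability was read by CellTiter-Glo and normalised to DMSO and 10 μM proteasome-inhibitor wells. Where given, area under the curve came from four-parameter log-logistic fits (drc, PharmacoGx R packages).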
# [2] = system: myeloid leukemia patient primary cells Pat.14; experiment: as above
# Method in brief: as §1
# [3] = system: myeloid leukemia patient primary cells Pat.1; experiment: as above
# Method in brief: as §1
# [4] = system: myeloid leukemia patient primary cells Pat.2; experiment: as above
# Method in brief: as §1
# [5] = system: myeloid leukemia patient primary cells Pat.6; experiment: as above
# Method in brief: as §1
# [6] = system: myeloid leukemia patient primary cells Pat.3; experiment: as above
# Method in brief: as §1
# [7] = system: myeloid leukemia patient primary cells Pat.15; experiment: as above
# Method in brief: as §1
# [8] = system: myeloid leukemia patient primary cells Pat.13; experiment: as above
# Method in brief: as §1
# [9] = system: myeloid leukemia patient primary cells Pat.12; experiment: as above
# Method in brief: as §1
# [10] = system: myeloid leukemia patient primary cells Pat.9; experiment: as above
# Method in brief: as §1
# [11] = system: myeloid leukemia patient primary cells Pat.11; experiment: as above
# Method in brief: as §1
# [12] = system: myeloid leukemia patient primary cells Pat.8; experiment: as above
# Method in brief: as §1
# [13] = system: myeloid leukemia patient primary cells Pat.7; experiment: as above
# Method in brief: as §1
# [14] = system: myeloid leukemia patient primary cells Pat.4; experiment: as above
# Method in brief: as §1
# [15] = system: myeloid leukemia patient primary cells Pat.5; experiment: as above
# Method in brief: as §1
# KU-812 = experiment: cell viability (% survival relative to DMSO control, bortezomib = 0%); higher = less cytotoxic
# Method in brief: (§2)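 In 384-well plates pre-printed with compounds at 1, 10, 100, 1000 or 10000 nM, duplicate wells received cells from 10 AML and 5 CML lines at densities within the linear growth range. The plates stayed at 37 °C with 5% CO2 for 72 h before CellTiter-Glo luminescence was recorded. Each entry is averaged percent survival. Scaling placed vehicle at 100% and a 10 µM positive control at 0%.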
# Mono-Mac-6 = experiment: as above
# Method in brief: as §2
# NOMO-1 = experiment: as above
# Method in brief: as §2
# THP-1 = experiment: as above
# Method in brief: as §2
structure (smiles),measurement,setting,value
"CCCCCCCCCCCCC/C=C/[C@@H](O)[C@H](CO)N(C)C [N,N-Dimethylsphingosine]",cell viability,[1]; 1 nM,79.3%
same,cell viability,[1]; 10 nM,74.6%
same,cell viability,[1]; 100 nM,39.9%
same,cell viability,[1]; 1000 nM,22.9%
same,cell viability,[1]; 10000 nM,< 0%
same,cell viability,[2]; 1 nM,97.9%
same,cell viability,[2]; 10 nM,85%
same,cell viability,[2]; 100 nM,57.8%
same,cell viability,[2]; 1000 nM,47.9%
same,cell viability,[2]; 10000 nM,2.81%
same,cell viability,[3]; 1 nM,> 100%
same,cell viability,[3]; 10 nM,92.6%
same,cell viability,[3]; 100 nM,79.6%
same,cell viability,[3]; 1000 nM,74.3%
same,cell viability,[3]; 10000 nM,56.2%
same,cell viability,[4]; 1 nM,91.4%
same,cell viability,[4]; 10 nM,96.1%
same,cell viability,[4]; 100 nM,88.2%
same,cell viability,[4]; 1000 nM,92.4%
same,cell viability,[4]; 10000 nM,3.22%
same,cell viability,[5]; 1 nM,> 100%
same,cell viability,[5]; 10 nM,99.3%
same,cell viability,[5]; 100 nM,76.5%
same,cell viability,[5]; 1000 nM,83.7%
same,cell viability,[5]; 10000 nM,0.544%
same,cell viability,[6]; 1 nM,57.4%
same,cell viability,[6]; 10 nM,87.2%
same,cell viability,[6]; 100 nM,60%
same,cell viability,[6]; 1000 nM,17.4%
same,cell viability,[6]; 10000 nM,0.177%
same,cell viability,[7]; 1 nM,93.8%
same,cell viability,[7]; 10 nM,95.6%
same,cell viability,[7]; 100 nM,78.6%
same,cell viability,[7]; 1000 nM,85.5%
same,cell viability,[7]; 10000 nM,10.4%
same,cell viability,[8]; 1 nM,94.6%
same,cell viability,[8]; 10 nM,86.2%
same,cell viability,[8]; 100 nM,71.2%
same,cell viability,[8]; 1000 nM,85.7%
same,cell viability,[8]; 10000 nM,0.263%
same,cell viability,[9]; 1 nM,100%
same,cell viability,[9]; 10 nM,84.6%
same,cell viability,[9]; 100 nM,94.2%
same,cell viability,[9]; 1000 nM,84.6%
same,cell viability,[9]; 10000 nM,42.2%
same,cell viability,[10]; 1 nM,68.4%
same,cell viability,[10]; 10 nM,77.7%
same,cell viability,[10]; 100 nM,25.2%
same,cell viability,[10]; 1000 nM,21.6%
same,cell viability,[10]; 10000 nM,< 0%
same,cell viability,[11]; 1 nM,94.6%
same,cell viability,[11]; 10 nM,> 100%
same,cell viability,[11]; 100 nM,94.1%
same,cell viability,[11]; 1000 nM,93.3%
same,cell viability,[11]; 10000 nM,19.4%
same,cell viability,[12]; 1 nM,71.9%
same,cell viability,[12]; 10 nM,86.8%
same,cell viability,[12]; 100 nM,69%
same,cell viability,[12]; 1000 nM,92.9%
same,cell viability,[12]; 10000 nM,0.0301%
same,cell viability,[13]; 1 nM,90.6%
same,cell viability,[13]; 10 nM,65.6%
same,cell viability,[13]; 100 nM,86.3%
same,cell viability,[13]; 1000 nM,11.6%
same,cell viability,[13]; 10000 nM,< 0%
same,cell viability,[14]; 1 nM,98.5%
same,cell viability,[14]; 10 nM,80.5%
same,cell viability,[14]; 100 nM,78.5%
same,cell viability,[14]; 1000 nM,74%
same,cell viability,[14]; 10000 nM,5.51%
same,cell viability,[15]; 1 nM,75.5%
same,cell viability,[15]; 10 nM,57.6%
same,cell viability,[15]; 100 nM,10.1%
same,cell viability,[15]; 1000 nM,2.01%
same,cell viability,[15]; 10000 nM,0.265%
same,cell viability,KU-812; 1 nM,101%
same,cell viability,KU-812; 10 nM,90.5%
same,cell viability,KU-812; 100 nM,103%
same,cell viability,KU-812; 1000 nM,102%
same,cell viability,KU-812; 10000 nM,55%
same,cell viability,Mono-Mac-6; 1 nM,95.1%
same,cell viability,Mono-Mac-6; 10 nM,91.7%
same,cell viability,Mono-Mac-6; 100 nM,97.9%
same,cell viability,Mono-Mac-6; 1000 nM,89.4%
same,cell viability,Mono-Mac-6; 10000 nM,70%
same,cell viability,NOMO-1; 1 nM,92%
same,cell viability,NOMO-1; 10 nM,101%
same,cell viability,NOMO-1; 100 nM,100%
same,cell viability,NOMO-1; 1000 nM,94.1%
same,cell viability,NOMO-1; 10000 nM,85.8%
same,cell viability,THP-1; 1 nM,97.5%
same,cell viability,THP-1; 10 nM,100%
same,cell viability,THP-1; 100 nM,105%
same,cell viability,THP-1; 1000 nM,89.7%
same,cell viability,THP-1; 10000 nM,61.7%

# From the supplement of paper PMC8671470
